Like-named read-outs stand apart in the source and are kept apart here.
Tests used:
Type in all cases: in vivo
[1] = test system: Erysiphe graminis tritici (Wheat); assay: Foliar fungal disease test on plants: Erysiphe graminis tritici (Wheat); conditions: plants inoculated 24 hours before treatment
[2] = test system: Septoria nodorum (Wheat); assay: Foliar fungal disease test on plants: Septoria nodorum (Wheat); conditions: one or two days before inoculation
[3] = test system: Puccinia recondita (Wheat); assay: Foliar fungal disease test on plants: Puccinia recondita (Wheat); conditions: plants inoculated with Puccinia recondita 48 hours before treatment
[4] = test system: Plasmopara viticola (Vines); assay: Foliar fungal disease test on plants: Plasmopara viticola (Vines); conditions: one or two days before inoculation
[5] = test system: Phytophthora infestans (Tomatoes); conditions: one or two days before inoculation
[6] = test system: Pyricularia oryzae (Rice); conditions: one or two days before inoculation
[7] = test system: Venturia inaequalis (Apples); assay: Foliar fungal disease test on plants: Venturia inaequalis (Apples); conditions: one or two days before inoculation
[8] = test system: Thanatephorus cucumeries (Rice); assay: Foliar fungal disease test on plants: Thanatephorus cucumeries (Rice); conditions: one or two days before inoculation
[9] = 100 ppm a.i. foliar spray or root drench (approx. 40 ppm in dry soil)
[10] = 100 ppm a.i. foliar spray or root drench

Row | SMILES | POCO (Percentage of Control) disease level, Erysiphe graminis tritici (Wheat) [1, 9] | POCO (Percentage of Control) disease level, Septoria nodorum (Wheat) [2, 9] | POCO (Percentage of Control) disease level, Puccinia recondita (Wheat) [3, 10] | POCO (Percentage of Control) disease level, Plasmopara viticola (Vines) [4, 9] | POCO (Percentage of Control) disease level, Phytophthora infestans (Tomatoes) [5, 9] | POCO (Percentage of Control) disease level, Pyricularia oryzae (Rice) [6, 9] | POCO (Percentage of Control) disease level, Venturia inaequalis (Apples) [7, 9] | POCO (Percentage of Control) disease level, Thanatephorus cucumeries (Rice) [8, 9] | POCO (Percentage of Control) disease level, Erysiphe graminis tritici (Wheat) ([1]; 10 ppm foliar spray only) | POCO (Percentage of Control) disease level, Septoria nodorum (Wheat) ([2]; 10 ppm foliar spray only) | POCO (Percentage of Control) disease level, Puccinia recondita (Wheat) ([3]; 10 ppm foliar spray only) | POCO (Percentage of Control) disease level, Plasmopara viticola (Vines) ([4]; 10 ppm foliar spray only) | POCO (Percentage of Control) disease level, Phytophthora infestans (Tomatoes) ([5]; 10 ppm foliar spray only) | POCO (Percentage of Control) disease level, Pyricularia oryzae (Rice) ([6]; 10 ppm foliar spray only) | POCO (Percentage of Control) disease level, Venturia inaequalis (Apples) ([7]; 10 ppm foliar spray only) | POCO (Percentage of Control) disease level, Thanatephorus cucumeries (Rice) ([8]; 10 ppm foliar spray only)
1 | C=CCNC(=O)OCc1ccccc1C(=COC)C(=O)OC [20 (1)] | 20 (20 and 24 = 10.1-20% disease present) | 90 (90 and 94 = 60.1-100% disease present) | 3+ (3 = 1.1-3% disease present) | 90 (90 and 94 = 60.1-100% disease present) | 60 (60 = 30.1-60% disease present) | 20 (20 and 24 = 10.1-20% disease present) | 5 (5 = 3.1-5% disease present) | 90 (90 and 94 = 60.1-100% disease present) | – | – | – | – | – | – | – | –
2 | COC=C(C(=O)OC)c1ccccc1COC(=O)N(C)c1ccccc1SC [21 (2)] | – | – | – | – | – | – | – | – | 90 (90 and 94 = 60.1-100% disease present) | 60 (60 = 30.1-60% disease present) | 90+ (90 and 94 = 60.1-100% disease present) | 0 (0 = 0% disease present) | 90 (90 and 94 = 60.1-100% disease present) | 30 (30 = 20.1-30% disease present) | 60 (60 = 30.1-60% disease present) | 90 (90 and 94 = 60.1-100% disease present)
3 | COC=C(C(=O)OC)c1ccccc1COC(=O)Nc1c(F)cccc1F [23 (1)] | 0 (0 = 0% disease present) | 30 (30 = 20.1-30% disease present) | 30+ (30 = 20.1-30% disease present) | 0 (0 = 0% disease present) | 90 (90 and 94 = 60.1-100% disease present) | 30 (30 = 20.1-30% disease present) | 0 (0 = 0% disease present) | 0 (0 = 0% disease present) | – | – | – | – | – | – | – | –
4 | COC=C(C(=O)OC)c1ccccc1COC(=O)N(C)c1c(F)cccc1F [23 (2)] | 0 (0 = 0% disease present) | 0 (0 = 0% disease present) | 0+ (0 = 0% disease present) | 0 (0 = 0% disease present) | 0 (0 = 0% disease present) | 0 (0 = 0% disease present) | 0 (0 = 0% disease present) | 0 (0 = 0% disease present) | – | – | – | – | – | – | – | –
5 | CCN(C(=O)OCc1ccccc1C(=COC)C(=O)OC)c1c(F)cccc1F [23 (3)] | 0 (0 = 0% disease present) | 5 (5 = 3.1-5% disease present) | 0+ (0 = 0% disease present) | 0 (0 = 0% disease present) | 5 (5 = 3.1-5% disease present) | 1 (1 = 0.1-1% disease present) | 0 (0 = 0% disease present) | 0 (0 = 0% disease present) | – | – | – | – | – | – | – | –
6 | C=CCN(C(=O)OCc1ccccc1C(=COC)C(=O)OC)c1c(F)cccc1F [23 (101)] | 0 (0 = 0% disease present) | 10 (10 = 5.1-10% disease present) | 0+ (0 = 0% disease present) | 0 (0 = 0% disease present) | 90 (90 and 94 = 60.1-100% disease present) | 0 (0 = 0% disease present) | 0 (0 = 0% disease present) | 0 (0 = 0% disease present) | – | – | – | – | – | – | – | –
7 | CCN(C(=O)OCc1ccccc1C(=COC)C(=O)OC)c1ccc(F)cc1F [24 (3)] | 0 (0 = 0% disease present) | 0 (0 = 0% disease present) | 0+ (0 = 0% disease present) | 0 (0 = 0% disease present) | 60 (60 = 30.1-60% disease present) | 10 (10 = 5.1-10% disease present) | 0 (0 = 0% disease present) | 0 (0 = 0% disease present) | – | – | – | – | – | – | – | –
8 | COC=C(C(=O)OC)c1ccccc1OC(=O)Nc1ccc(F)cc1F [24 (17)] | 0 (0 = 0% disease present) | 0 (0 = 0% disease present) | 0+ (0 = 0% disease present) | 0 (0 = 0% disease present) | 0 (0 = 0% disease present) | 0 (0 = 0% disease present) | 0 (0 = 0% disease present) | 60 (60 = 30.1-60% disease present) | – | – | – | – | – | – | – | –
9 | COC=C(C(=O)OC)c1ccccc1OC(=O)N(C)c1ccc(F)cc1F [24 (18)] | – | – | – | – | – | – | – | – | 60 (60 = 30.1-60% disease present) | 90 (90 and 94 = 60.1-100% disease present) | 90+ (90 and 94 = 60.1-100% disease present) | 90 (90 and 94 = 60.1-100% disease present) | 90 (90 and 94 = 60.1-100% disease present) | 90 (90 and 94 = 60.1-100% disease present) | 90 (90 and 94 = 60.1-100% disease present) | 90 (90 and 94 = 60.1-100% disease present)
10 | COC=C(C(=O)OC)c1ccccc1COC(=O)Nc1cc(F)ccc1F [27 (1)] | – | – | – | – | – | – | – | – | 90 (90 and 94 = 60.1-100% disease present) | 90 (90 and 94 = 60.1-100% disease present) | 90+ (90 and 94 = 60.1-100% disease present) | 90 (90 and 94 = 60.1-100% disease present) | 90 (90 and 94 = 60.1-100% disease present) | 30 (30 = 20.1-30% disease present) | 90 (90 and 94 = 60.1-100% disease present) | 90 (90 and 94 = 60.1-100% disease present)
11 | CCN(C(=O)OCc1ccccc1C(=COC)C(=O)OC)c1cc(F)ccc1F [27 (3)] | 0 (0 = 0% disease present) | 30 (30 = 20.1-30% disease present) | 0+ (0 = 0% disease present) | 0 (0 = 0% disease present) | 20 (20 and 24 = 10.1-20% disease present) | 0 (0 = 0% disease present) | 0 (0 = 0% disease present) | 0 (0 = 0% disease present) | – | – | – | – | – | – | – | –

— patent publication US6465457B1 (priority 1991, dated 2002)
